# Data published in patent US8129370B2, “Use of oxicam compounds” (Dritte PatentPortfolio Beteiligungsgesellschaft MBH & Co. KG, priority 2003, dated 2012).
# Columns and labels:
# [1] = tested on: amyloid precursor protein (APP); conditions: cited from earlier work
# Aβ42 = conditions: WO 01/78721 A1; cited from earlier work
# plasma half-life = conditions: in vivo
# [2] = cited from earlier work
# COX-1 [3] = molecular target: T1, COX-1 (Homo sapiens, UniProt P23219); assay: inhibition of COX-1 (isozyme of the eicosanoid metabolism); format: biochemical; set-up: eicosanoid formation in HEL cells (COX-1); endogenous in cells; host or cells: HEL cells
# T1 sequence (P23219 24-599): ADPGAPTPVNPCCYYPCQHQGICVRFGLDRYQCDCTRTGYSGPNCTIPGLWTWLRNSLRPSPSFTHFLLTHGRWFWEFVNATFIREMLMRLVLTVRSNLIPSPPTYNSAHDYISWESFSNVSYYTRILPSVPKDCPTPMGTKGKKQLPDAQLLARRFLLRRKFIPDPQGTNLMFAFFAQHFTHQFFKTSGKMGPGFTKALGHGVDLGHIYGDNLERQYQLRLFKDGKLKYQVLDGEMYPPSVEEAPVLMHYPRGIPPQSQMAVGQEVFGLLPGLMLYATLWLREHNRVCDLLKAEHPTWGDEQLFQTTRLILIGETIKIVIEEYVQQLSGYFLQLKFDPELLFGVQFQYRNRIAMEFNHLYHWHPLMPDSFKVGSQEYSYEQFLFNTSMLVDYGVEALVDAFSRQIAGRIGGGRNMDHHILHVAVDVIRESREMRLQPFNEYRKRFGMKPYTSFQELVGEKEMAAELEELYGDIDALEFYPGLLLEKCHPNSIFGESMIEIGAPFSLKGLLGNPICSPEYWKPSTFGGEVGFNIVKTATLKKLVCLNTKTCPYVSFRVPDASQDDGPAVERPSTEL
# COX-2 [4] = molecular target: T2, COX-2 (Homo sapiens, UniProt P35354); assay: inhibition of eicosanoid formation in LPS-stimulated Mono Mac 6-cells (COX-2); format: cell-based; conditions: FIG. 7
# T2 construct: LPS-stimulated Mono Mac 6-cells (COX-2); endogenous in cells; host or cells: LPS-stimulated Mono Mac 6 cells
# T2 sequence (P35354 18-604): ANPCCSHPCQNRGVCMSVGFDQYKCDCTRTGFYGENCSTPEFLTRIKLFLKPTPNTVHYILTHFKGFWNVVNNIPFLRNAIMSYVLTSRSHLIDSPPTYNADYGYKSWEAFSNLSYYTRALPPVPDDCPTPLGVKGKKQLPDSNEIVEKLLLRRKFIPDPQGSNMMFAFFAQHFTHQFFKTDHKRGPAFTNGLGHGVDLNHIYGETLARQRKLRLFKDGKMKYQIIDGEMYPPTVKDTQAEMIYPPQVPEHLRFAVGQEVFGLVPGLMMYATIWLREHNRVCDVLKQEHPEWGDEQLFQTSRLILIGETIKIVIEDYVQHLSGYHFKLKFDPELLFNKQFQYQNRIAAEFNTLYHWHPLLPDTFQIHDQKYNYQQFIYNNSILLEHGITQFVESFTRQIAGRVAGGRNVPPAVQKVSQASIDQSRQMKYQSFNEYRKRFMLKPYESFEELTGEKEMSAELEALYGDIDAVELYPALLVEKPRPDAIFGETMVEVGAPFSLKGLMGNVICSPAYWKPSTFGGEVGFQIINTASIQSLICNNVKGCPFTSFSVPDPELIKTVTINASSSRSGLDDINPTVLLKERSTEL
# COX-1 [5] = molecular target: T1, COX-1; assay: inhibition of eicosanoid formation in HEL cells (COX-1); format: cell-based; set-up: eicosanoid formation in HEL cells (COX-1); endogenous in cells; host or cells: HEL cells; conditions: FIG. 7
# [6] = Pruss et al. 1989; cited from earlier work
# COX-2 [7] = molecular target: T2, COX-2; assay: inhibition of COX-2 (isozyme of the eicosanoid metabolism); format: biochemical
structure (smiles),measurement,setting,value
CC(C)Cc1ccc(C(C)C(=O)O)cc1 (stereo not shown) [Ibuprofen],portion of the amyloid β-42 peptide,[1],lowered
same,portion of the non-amyloidogenic soluble APP,[1],increased
Cc1cc(NC(=O)C2=C(O)c3ccccc3S(=O)(=O)N2C)no1 [isoxicam],influence on the expression of Aβ42,Aβ42,"do not influence the expression of Aβ42 and even increase the expression thereof, respectively"
CN1C(C(=O)Nc2ccccn2)=C(O)c2sc(Cl)cc2S1(=O)=O [lornoxicam],plasma half-life,plasma half-life,short
same,severe undesired events reported,[2]; in one million of prescriptions,less than 10
same,gastro-intestinal and other tolerance,[2]; in vivo,good
same,side-effects found during observation of usage,[2]; in vivo,below 0.05%
same,inhibition of COX-1,COX-1 [3],inhibits
same,inhibition of the eicosanoid formation,COX-2 [4],inhibition
same,inhibition of the eicosanoid formation,COX-1 [5],inhibition
same,crossing the blood-brain barrier,[6],not capable of crossing the blood-brain barrier
same,inhibition of COX-2,COX-2 [7],inhibits
CN1C(C(=O)Nc2ccccn2)=C(O)c2ccccc2S1(=O)=O [peroxicam],influence on the expression of Aβ42,Aβ42,"do not influence the expression of Aβ42 and even increase the expression thereof, respectively"
